According to paper PMC8480901 (PLoS ONE, 2021):
“And” between values parts separate entries of the source, which are not always exact repeats. Equal values may be shown once.

Test system: TNF-α, IL-6, IL-1β, GM-CSF, CXCL-1, CXCL-2, CCL-2 and MMP-9 in lung tissue
Assay: LPS-induced cytokines, chemokines and MMP-9 in mouse lung homogenates (Luminex, ELISA)
Conditions: for CCL2 / CXCL1 / CXCL2 / GM-CSF / IL-1β / IL-6 / MMP9 / TNFα: individual animal, listed as Azi
[1] = all doses (10, 30, 100 mg/kg SC)
[2] = lung homogenate, LPS, 10 mg/kg, mean of 8
[3] = lung homogenate, LPS, 30 mg/kg, mean of 8

Method: To induce pulmonary neutrophilia, mice in the control group received intranasal (IN) 50 μL saline, and all other animals received 5 μg LPS/50 μL saline IN per mouse.
After bronchoalveolar lavage, lungs were removed, weighed, snap frozen, and stored at −80°C until analysis. To homogenize the tissue, the frozen lungs were thawed and placed in Precellys CK28 Hard Tissue tubes (BERTIN Instruments, Montigny-le-Bretonneux, France) in 1 mL PBS (Gibco, Life Technologies, Paisley, UK) supplemented with protease inhibitors (Halt™ Protease Inhibitor Cocktail [100×]; Thermo Fisher Scientific, Rockford, IL, USA). A Precellys homogenizer (BERTIN Instruments) was used, shaking at 6800 rpm for three 30-second pulses separated by 15-second pauses. After homogenization, samples were centrifuged at 18,000×g for 10 minutes at 4°C, and the supernatants were collected for analysis.
Concentrations of tumor necrosis factor (TNF)-α, IL-6, granulocyte-macrophage colony-stimulating factor (GM-CSF), chemokine (C-X-C motif) ligand (CXCL)-1, CXCL-2, and chemokine (C-C motif) ligand (CCL)-2 in mouse lung homogenates were analyzed with the Mouse Premixed Multi-Analyte Kit (R&D Systems, Minneapolis, MN, USA) per the manufacturer’s protocol and using a Luminex 200 System (Luminex Corporation, Austin, TX, USA). Cytokine and chemokine concentrations were determined from blank-corrected median fluorescence intensity of each sample via xPONENT® software (Luminex Corporation), interpolating from standard curves generated with a 5-parameter logistic curve-fit.
Mouse Total MMP (matrix metalloprotease)-9 and IL-1β/IL-1F2 DuoSet ELISA (enzyme-linked immunosorbent assay) kits (R&D Systems) were used to measure concentrations of MMP-9 and IL-1β, respectively, in lung homogenates per the manufacturer’s protocols. Absorbance at 450 nm was measured using the SpectraMax i3 (Molecular Devices, San Jose, CA, USA). Concentrations of MMP-9 and IL-1β in samples were determined by interpolation from standard curves.
Differences between treated versus vehicle groups were determined using the Mann-Whitney test and were considered statistically significant when P<0.05. Outliers in the analysis of cytokine and chemokine concentrations were identified using the Grubbs test. No criteria were set for inclusion/exclusion of animals during the experiment or data points during the analysis.

`CC[C@H]1OC(=O)[C@H](C)[C@@H](O[C@H]2C[C@@](C)(OC)[C@@H](O)[C@H](C)O2)[C@H](C)[C@@H](O[C@@H]2O[C@H](C)C[C@H](N(C)C)[C@H]2O)[C@](C)(O)C[C@@H](C)CN(C)[C@H](C)[C@@H](O)[C@]1(C)O` [Azithromycin] was tested, and the “TNF-α concentrations in lung homogenate” value (100 mg/kg SC) was “no significant effect”, the “TNF-α concentrations in lung homogenate” value (10 and 30 mg/kg SC) was “significant reductions” and the “IL-1β concentrations in lung homogenate” value [1] was “reduced”. The “MMP-9 levels in lung homogenate” value [1] was “not as pronounced as with lefamulin”, the “chemokines and GM-CSF in lung homogenate” value [1] was “significant but not as pronounced” and the “IL-6 concentrations in lung homogenate” value (all doses tested (10, 30, 100 mg/kg SC), vs vehicle control) was “reduced to a lesser extent”. For the same compound, the “IL-1β concentrations in lung homogenate” value (lowest dose (10 mg/kg SC)) was “significant reduction”, the CCL2 % reduction (lung homogenate, LPS, 10 mg/kg) was 36% and the CXCL1 % reduction (lung homogenate, LPS, 10 mg/kg) was 44%. The CXCL2 % reduction (lung homogenate, LPS, 10 mg/kg) was 41%, the GM-CSF % reduction (lung homogenate, LPS, 10 mg/kg) was 44% and the IL-1β % reduction (lung homogenate, LPS, 10 mg/kg) was 13%. For the same compound, the IL-6 % reduction (lung homogenate, LPS, 10 mg/kg) was 51%, the MMP9 % reduction (lung homogenate, LPS, 10 mg/kg) was 16% and the TNFα % reduction (lung homogenate, LPS, 10 mg/kg) was 61%. For the same compound, the CCL2 (lung homogenate, LPS, 10 mg/kg) was 4556.27 pg/mL and 3263.22 pg/mL and 1456.64 pg/mL and 3309.90 pg/mL and 1430.47 pg/mL and 5875.00 pg/mL and 1417.32 pg/mL and 3315.08 pg/mL, the CXCL1 (lung homogenate, LPS, 10 mg/kg) was 8286.02 pg/mL and 7278.90 pg/mL and 5769.98 pg/mL and 6100.99 pg/mL and 6284.84 pg/mL and 12400.64 pg/mL and 5305.93 pg/mL and 5666.95 pg/mL and the CXCL2 (lung homogenate, LPS, 10 mg/kg) was 7643.01 pg/mL and 7085.07 pg/mL and 4631.04 pg/mL and 5712.04 pg/mL and 6677.58 pg/mL and 11079.57 pg/mL and 4412.48 pg/mL and 8631.64 pg/mL. The GM-CSF (lung homogenate, LPS, 10 mg/kg) was 139.66 pg/mL and 134.35 pg/mL and 75.54 pg/mL and 114.95 pg/mL and 86.88 pg/mL and 293.40 pg/mL and 92.13 pg/mL and 119.35 pg/mL, the IL-1β (lung homogenate, LPS, 10 mg/kg) was 8824 pg/mL and 7408 pg/mL and 8108 pg/mL and 9841 pg/mL and 7312 pg/mL and 9969 pg/mL and 10254 pg/mL and 14453 pg/mL and the IL-6 (lung homogenate, LPS, 10 mg/kg) was 703.95 pg/mL and 429.86 pg/mL and 475.85 pg/mL and 521.70 pg/mL and 613.04 pg/mL and 952.23 pg/mL and 337.40 pg/mL and 749.27 pg/mL. For the same compound, the MMP9 (lung homogenate, LPS, 10 mg/kg) was 2413 pg/mL and 1880 pg/mL and 2467 pg/mL and 2045 pg/mL and 2015 pg/mL and 1705 pg/mL and 1966 pg/mL, the TNFα (lung homogenate, LPS, 10 mg/kg) was 468.82 pg/mL and 365.25 pg/mL and 396.22 pg/mL and 281.21 pg/mL and 385.93 pg/mL and 406.49 pg/mL and 646.25 pg/mL and 400.08 pg/mL and the “CCL2 Mean” value [2] was 3078 pg/mL. The “CXCL1, Mean” value [2] was 7137 pg/mL, the “CXCL2, Mean” value [2] was 6984 pg/mL and the “GM-CSF Mean” value [2] was 132 pg/mL. The “IL-1β Mean” value [2] was 9521 pg/mL, the “IL-6 Mean” value [2] was 598 pg/mL and the “MMP9, Mean” value [2] was 2113 pg/mL. For the same compound, the “TNFα Mean” value [2] was 419 pg/mL, the CCL2 % reduction (lung homogenate, LPS, 30 mg/kg) was 89% and the CXCL1 % reduction (lung homogenate, LPS, 30 mg/kg) was 62%. The CXCL2 % reduction (lung homogenate, LPS, 30 mg/kg) was 66%, the GM-CSF % reduction (lung homogenate, LPS, 30 mg/kg) was 77% and the IL-1β % reduction (lung homogenate, LPS, 30 mg/kg) was 12%. It also gave an IL-6 % reduction (lung homogenate, LPS, 30 mg/kg) of 89%, an MMP9 % reduction (lung homogenate, LPS, 30 mg/kg) of 27% and a TNFα % reduction (lung homogenate, LPS, 30 mg/kg) of 77%. The CCL2 (lung homogenate, LPS, 30 mg/kg) was 1476.16 pg/mL and 999.58 pg/mL and 556.20 pg/mL and 527.89 pg/mL and 1875.36 pg/mL and 690.08 pg/mL and 698.62 pg/mL and 781.98 pg/mL, the CXCL1 (lung homogenate, LPS, 30 mg/kg) was 6439.29 pg/mL and 6623.20 pg/mL and 4431.51 pg/mL and 4192.30 pg/mL and 6910.31 pg/mL and 3755.15 pg/mL and 2835.10 pg/mL and 5401.78 pg/mL and the CXCL2 (lung homogenate, LPS, 30 mg/kg) was 7207.48 pg/mL and 4769.86 pg/mL and 3209.88 pg/mL and 2485.22 pg/mL and 5075.82 pg/mL and 2214.38 pg/mL and 1941.44 pg/mL and 6143.97 pg/mL. The GM-CSF (lung homogenate, LPS, 30 mg/kg) was 74.67 pg/mL and 53.86 pg/mL and 46.96 pg/mL and 43.52 pg/mL and 113.19 pg/mL and 45.24 pg/mL and 48.68 pg/mL and 57.31 pg/mL, the IL-1β (lung homogenate, LPS, 30 mg/kg) was 7544 pg/mL and 10213 pg/mL and 8353 pg/mL and 7459 pg/mL and 10985 pg/mL and 8847 pg/mL and 13576 pg/mL and 10376 pg/mL and the IL-6 (lung homogenate, LPS, 30 mg/kg) was 510.25 pg/mL and 452.87 pg/mL and 220.67 pg/mL and 149.74 pg/mL and 314.17 pg/mL and 173.48 pg/mL and 475.85 pg/mL. For the same compound, the MMP9 (lung homogenate, LPS, 30 mg/kg) was 1204 pg/mL and 2421 pg/mL and 1943 pg/mL and 1913 pg/mL and 2288 pg/mL and 1939 pg/mL and 1874 pg/mL and 1816 pg/mL, the TNFα (lung homogenate, LPS, 30 mg/kg) was 463.76 pg/mL and 597.19 pg/mL and 177.73 pg/mL and 146.70 pg/mL and 109.09 pg/mL and 202.71 pg/mL and 129.48 pg/mL and the “CCL2 Mean” value [3] was 951 pg/mL. The “CXCL1, Mean” value [3] was 5074 pg/mL and the “CXCL2, Mean” value [3] was 4131 pg/mL.
